Laboratory results from article PMC4999267, “Characterization of Promiscuous Binding of Phosphor Ligands to Breast-Cancer-Gene 1 (BRCA1) C-Terminal (BRCT): Molecular Dynamics, Free Energy, Entropy and Inhibitor Design” (PLoS Computational Biology, 2016).

Molecular target: BRCT(BRCA1) (Homo sapiens, UniProt P38398)
Test: fluorescence polarization competition
Type: binding
Excerpt: fluorescence polarization competition on BRCT(BRCA1)

Sequence of BRCT(BRCA1) (P38398 1646-1859): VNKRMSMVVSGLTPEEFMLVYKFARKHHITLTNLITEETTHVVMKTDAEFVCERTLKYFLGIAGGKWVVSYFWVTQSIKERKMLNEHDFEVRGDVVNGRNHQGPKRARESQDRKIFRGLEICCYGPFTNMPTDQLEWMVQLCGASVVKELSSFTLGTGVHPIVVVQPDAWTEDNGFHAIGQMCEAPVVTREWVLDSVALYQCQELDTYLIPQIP

IC50: > 250 µM
SMILES: CC(=O)N[C@@H](COP(=O)(O)O)C(=O)Nc1cccc(CC(=O)N[C@@H](Cc2ccccc2)C(=O)O)c1 [N1]
